In patent publication EP3771719A1, “A PEPTIDE BINDING TO TAU-PROTEIN” (Hochschule für angewandte Wissenschaften Fachhochschule …, priority 2019, dated 2021):
Non-standard residues stand in square brackets, D forms with d. No end group written: not given here.

Key:
tau fibrils = test: ELISA binding of FAM-labeled peptides to tau fibrils; conditions: plate coated with 20 µg/ml tau fibrils, FAM-labeled peptide in increasing concentrations, absorbance at 450 nm
Method: (§1) Peptides were used that had been labeled with a FAM (=5/6-carboxyfluorescein) at the C-terminus. The peptides used were MM2 (= LTPHKHHKHLHA as L-enantiomer = SEQ ID NO: 6) and MM3 (SEQ ID NO: 1), to which a Lys (FAM)-NH2-residue had been attached at the C-terminus, respectively. The wells of a 96-well plate were coated with 20 µg/ml monomeric tau-protein or tau-fibrils and were incubated for 1h. After washing three times with PBS-T (phosphate-buffered saline with 0.1 % tween), the free binding sites were blocked for over a period of 1 hour. The respective peptides MM2-Lys(FAM)-NH2 and MM3-Lys(FAM)-NH2 were added (1 µg/ml, 5 µg/ml, 10 µg/ml, 20 µg/ml) and incubated for 1h. A specific anti-FITC-HRP antibody (anti-fluorescein-isothiocyanate-horseradish-peroxidase) was added in 1:1000 dilution and was incubated for 1h. Thereafter, TMB-substrate was added and incubated for 20 min. After […] of enzyme reaction by addition of 20% sulfuric acid, the absorption at 450 nm was determined. Measurements were performed in triplicate and the average values of the measured absorption of these triplicate samples as well as their standard deviations are shown in figure 1.
(§2) The binding affinity of MMD2 and MMD3 was tested using ELISA. […] The detection was done with anti-FAM HRP antibodies and absorbance was measured at 450 nm. […]

tau-protein = test: ThT aggregation assay of tau-protein with heparin; assay type: biochemical; conditions: 24 µM tau, 6 µM heparin, 36 h
Method: A ThT-aggregation assay of tau was performed for quantifying the relative content of fibrils in the presence of peptides and heparin (6 µM). The concentration of tau-protein was 24 µM, the peptides were added at a ratio of 1:5 and 1:10 (tau-protein:peptide). The fluorescence measured of 24 µM tau-protein after incubation for 36h was arbitrarily set to be 100%, and the measured values and standard deviations of the other incubations are indicated as percentage proportions of this maximum value.
A ThT-aggregation assay of tau was performed for quantifying the relative content of fibrils in the presence of peptides and heparin (6 µM). Here, the D-enantiomers of the peptides and their retro-inverso-versions are used. "retro-inverso-version" as used herein, refers to a sequence wherein the amino acid sequence of one peptide, as read from its N-terminus to its C-terminus, has been reversed, such that the N-terminus and C-terminus of the peptide sequence have been inverted. The concentration of tau-protein was 24 µM, and the peptides MMD2 and MMD2rev were added at a ratio of 1:10. The peptides MMD3 and MMD3rev were added at a ratio of 1:5 and 1:10 (tau-protein:peptide). The fluorescence of tau-protein at 24 µM after an incubation of 36 h was arbitrarily set to be 100% and the measured values and standard deviations of the other incubations are indicated as percentage proportions of this maximum value.
To test the ability of the L-synthesized peptides to inhibit the aggregation of tau in vitro, thioflavin assays were performed. The peptides were added to the aggregation mix in a molar ratio of 1:5 and/or 1:10 (tau:peptide), respectively. As positive control, tau was incubated with heparin without addition of peptides, negative controls were tau alone with THT and buffer including THT. The relative fluorescence of the positive control was set to be 100% after 36 h of incubation and the relative fluorescence of the samples was normalized to the positive control.
To investigate the potential of the selected D-peptides MMD2, MMD2rev, MMD3 and MMD3rev to inhibit fibrillization of full-length tau, thioflavin fluorescence assays were performed. Tau aggregation was initiated by addition heparin to tau protein in a concentration of 24 µM, the mixtures were incubated in absence or presence of the respective peptide in a molar ratio of 1:10, in case of MMD2 as well as MMD2rev, and in molar ratio 1:10 and 1:5, in case of MMD3 and MMD3rev. After 36 hours of incubation, the fluorescence of the tau and heparin control sample reached a saturation level, and the value of fluorescence was set to 100%. […] MMD2 reduce the aggregation of tau to about 90% and MMD2rev reduce the aggregation to about 70%. […] The inventors observed also that ThT fluorescence decreased with increasing concentration of the MMD3 and MMD3rev signifying a robust dose-dependent inhibition of full-length tau aggregation.

tau monomers = test: ELISA binding of FAM-labeled peptides to tau monomers; conditions: plate coated with 20 µg/ml tau monomers, FAM-labeled peptide in increasing concentrations, absorbance at 450 nm
Method: as §1, §2

PHF6* fibrils = test: ELISA binding of FAM-labeled peptide to PHF6* fibrils; conditions: plate coated with 50 µg/ml PHF6* fibrils, FAM-labeled peptide 10, 20, 50 µg/ml, absorption at 450 nm
Method: As used herein, "PHF6*-fibrils" are fibrils comprising the D-enantiomeric version of tau-peptide VQIINK (SEQ ID NO: 5). The wells of a 96-well plate were coated with 50 µg/ml PHF6*-fibrils and were incubated for 1h. After washing of wells three times with PBS-T (phosphate buffer saline with 0.1 % tween), the free binding sites were blocked for 1 hour. Peptide MMD3-Lys(FAM)-NH2 was added (10 µg/ml, 20 µg/ml and 50 µg/ml) and incubated for 1 h. A specific anti-FITC-HRP-antibody was added at a dilution of 1:1000 and incubated for 1h. Thereafter, TMB-substrate solution was added and incubated for 20 min. After termination of the enzyme reaction by additional 20 % sulfuric acid, absorption at 450 nm was measured. The absorption of the negative control (buffer only) was substracted. Triplicate measurements were performed, at the average values of the measured absorptions of the different samples are shown as well as their respective standard deviations.
To evaluate the binding properties of MMD3 to PHF6* fibrils, ELISA was performed with FAM-labeled version of the peptide. […] The peptide was added in an increasing concentration, the bound peptide was detected with anti-FAM antibodies. After adding the substrate, the absorption at 450 nm, which represents the binding affinities, was measured.

PHF6* = test: Thioflavin T test of PHF6* aggregation; assay type: biochemical; conditions: 1000 µM peptide, 100 µM PHF6*, 10 µM thioflavin T, RT, ThT fluorescence monitored over 30 h
Method: PHF6*-fibrils are fibrils comprising the D-enantiomeric version of tau-peptide VQIINK (SEQ ID NO: 5). Peptides MMD3 and MMD3rev were diluted in sodium phosphate buffer to 1000 µM, and 100 µM PHF6*-solution and 10 µM thioflavin T were added. 100 µM PHF6* and 10 µM thioflavin in Napi-buffer was used as positive control. The negative control was 10 µM thioflavin T in Napi-buffer only. The samples were pipetted into a black 96-well µclear flat-bottom plate and incubated for 30 h,the relative fluorescence (excitation = 440 nm and emission = 480 nm) was determined. Triplicate measurements were performed for each sample.
To test whether MMD3 and MMD3rev reduce PHF6* fibril formation, 1000 µM from the respective peptides were incubated with 100 µM PHF6* at RT, as positive control PHF6* was incubated alone. The relative fluorescence of THT was monitored over 30 h.

Row | binding to tau fibrils (tau fibrils) | binding to tau monomers (tau monomers) | Substance | aggregation of tau (relative ThT fluorescence, positive control tau + heparin = 100%) (tau-protein; molar ratio 1:10 (tau:peptide)) | aggregation of tau (relative ThT fluorescence, positive control tau + heparin = 100%) (tau-protein; molar ratio 1:5 (tau:peptide)) | binding to PHF6* fibrils (PHF6* fibrils) | inhibition of PHF6* fibril formation (PHF6*)
1 | binding could be demonstrated | binding could be demonstrated | ltphkhhkhlha [MMD2, reference compound] | about 90% | – | – | –
2 | – | – | LTPHKHHKHLHA [MM2, reference compound] | nearly complete inhibition | about 50% | – | –
3 | binding could be demonstrated | binding could be demonstrated | dplkarhtsvwy ([dD][dP][dL][dK][dA][dR][dH][dT][dS][dV][dW][dY]) [MMD3] | inhibited formation of tau aggregates significantly | inhibited formation of tau aggregates significantly | bound to PHF6* fibrils in concentration-dependent manner | did indeed inhibit the formation of PHF6* fibrils
4 | – | – | ahlhkhhkhptl (AHLHKHHKHPTL; all D-amino acids) [MMD2rev, reference compound] | about 70% | – | – | –
5 | – | – | ywvsthraklpd ([dY][dW][dV][dS][dT][dH][dR][dA][dK][dL][dP][dD]) [MMD3rev] | inhibited formation of tau aggregates significantly | inhibited formation of tau aggregates significantly | – | did indeed inhibit the formation of PHF6* fibrils
6 | – | – | DPLKARHTSVWY [MM3] | significantly inhibiting tau fibrils formation | significantly inhibiting tau fibrils formation | – | –
